“And” between values parts separate entries of the source, which are not always exact repeats. Identical values can stand only once. Like-named read-outs stand apart in the source and are kept apart here.
Tests used:
Test in all cases: SelectScreen kinase assay
CAMKK2 (CaMKK beta) = CAMKK2 (CaMKK beta) (Homo sapiens, UniProt Q96RR4)
Experimental: (§1) Selectivity profiling assays were performed by the Invitrogen SelectScreen™ Services. […] The concentration of ATP was selected to be equal to the KM, unless indicated otherwise.

HIPK4 = target: T1, HIPK4 (Homo sapiens, UniProt Q8NE63)
T1 sequence (Q8NE63 1-616): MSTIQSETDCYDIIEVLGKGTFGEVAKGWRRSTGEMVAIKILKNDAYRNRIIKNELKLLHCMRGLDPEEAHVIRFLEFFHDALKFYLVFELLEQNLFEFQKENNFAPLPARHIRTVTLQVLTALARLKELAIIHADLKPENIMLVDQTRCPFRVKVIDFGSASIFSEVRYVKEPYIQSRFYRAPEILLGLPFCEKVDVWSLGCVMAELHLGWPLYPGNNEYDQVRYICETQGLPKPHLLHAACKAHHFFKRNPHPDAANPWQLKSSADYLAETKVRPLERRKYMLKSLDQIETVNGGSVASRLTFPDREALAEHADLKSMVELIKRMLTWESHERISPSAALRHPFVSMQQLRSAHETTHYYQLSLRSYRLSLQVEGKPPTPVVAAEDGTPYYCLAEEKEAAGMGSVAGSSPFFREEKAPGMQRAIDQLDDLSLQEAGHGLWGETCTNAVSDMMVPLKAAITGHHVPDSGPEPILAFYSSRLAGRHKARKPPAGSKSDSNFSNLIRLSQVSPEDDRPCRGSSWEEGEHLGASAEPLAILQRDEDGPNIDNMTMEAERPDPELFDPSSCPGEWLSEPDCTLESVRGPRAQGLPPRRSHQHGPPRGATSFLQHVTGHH
Experimental: as §1

MYLK (MLCK) = MYLK (MLCK) (Homo sapiens, UniProt Q15746)
Experimental: as §1

MYO3B (MYO3 beta) = target: T2, MYO3B (MYO3 beta) (Homo sapiens, UniProt Q8WXR4)
T2 sequence (Q8WXR4 1-1341): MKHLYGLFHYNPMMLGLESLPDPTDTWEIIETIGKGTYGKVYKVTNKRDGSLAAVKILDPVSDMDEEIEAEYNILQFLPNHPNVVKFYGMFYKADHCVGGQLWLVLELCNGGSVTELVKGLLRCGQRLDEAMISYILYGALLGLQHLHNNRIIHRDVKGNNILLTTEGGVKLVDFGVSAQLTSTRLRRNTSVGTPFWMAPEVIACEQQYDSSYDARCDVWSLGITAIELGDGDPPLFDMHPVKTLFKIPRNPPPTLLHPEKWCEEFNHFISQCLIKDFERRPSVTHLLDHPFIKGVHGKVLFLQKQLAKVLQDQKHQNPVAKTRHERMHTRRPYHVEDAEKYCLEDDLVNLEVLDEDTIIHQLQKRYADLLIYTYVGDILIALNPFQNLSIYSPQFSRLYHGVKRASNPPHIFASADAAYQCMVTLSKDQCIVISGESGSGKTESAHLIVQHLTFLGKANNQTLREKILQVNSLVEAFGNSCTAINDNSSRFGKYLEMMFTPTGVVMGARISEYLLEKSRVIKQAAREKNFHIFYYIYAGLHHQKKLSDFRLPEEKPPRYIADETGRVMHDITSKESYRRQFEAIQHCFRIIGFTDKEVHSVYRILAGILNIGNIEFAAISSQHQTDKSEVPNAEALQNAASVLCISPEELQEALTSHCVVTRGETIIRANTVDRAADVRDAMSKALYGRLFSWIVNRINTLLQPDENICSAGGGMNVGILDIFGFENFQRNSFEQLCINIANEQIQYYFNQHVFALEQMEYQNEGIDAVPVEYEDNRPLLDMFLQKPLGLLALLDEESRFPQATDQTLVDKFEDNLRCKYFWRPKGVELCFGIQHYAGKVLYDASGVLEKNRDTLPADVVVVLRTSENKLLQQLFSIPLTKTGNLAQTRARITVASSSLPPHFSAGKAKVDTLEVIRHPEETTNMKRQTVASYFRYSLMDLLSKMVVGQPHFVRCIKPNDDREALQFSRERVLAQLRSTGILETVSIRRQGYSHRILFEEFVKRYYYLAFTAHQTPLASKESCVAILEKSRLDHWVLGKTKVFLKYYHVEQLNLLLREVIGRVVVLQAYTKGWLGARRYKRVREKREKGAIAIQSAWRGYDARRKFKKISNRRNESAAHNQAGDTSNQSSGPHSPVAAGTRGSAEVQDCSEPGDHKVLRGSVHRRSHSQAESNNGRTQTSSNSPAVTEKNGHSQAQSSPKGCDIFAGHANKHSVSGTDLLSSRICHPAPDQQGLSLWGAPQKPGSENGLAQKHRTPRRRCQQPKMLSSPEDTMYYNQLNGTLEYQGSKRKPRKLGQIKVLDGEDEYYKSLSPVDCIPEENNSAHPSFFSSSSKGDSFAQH
Experimental: as §1

PRKCE (PKC epsilon) = PRKCE (PKC epsilon) (Homo sapiens, UniProt Q02156)
Experimental: as §1

SRPK2 = SRPK2 (Homo sapiens, UniProt P78362); conditions: 1 h, 1 μM WEL028, 1 h preincubation
Experimental: as §1

STK32C (YANK3) = STK32C (YANK3) (Homo sapiens, UniProt Q86UX6)
Experimental: as §1

[1] = read-out: Inhibition at 1 µM (%)
[2] = 1 h, 1 μM WEL028, 1 h preincubation

Chain of PRKCE (PKC epsilon) (Q02156 whole entry): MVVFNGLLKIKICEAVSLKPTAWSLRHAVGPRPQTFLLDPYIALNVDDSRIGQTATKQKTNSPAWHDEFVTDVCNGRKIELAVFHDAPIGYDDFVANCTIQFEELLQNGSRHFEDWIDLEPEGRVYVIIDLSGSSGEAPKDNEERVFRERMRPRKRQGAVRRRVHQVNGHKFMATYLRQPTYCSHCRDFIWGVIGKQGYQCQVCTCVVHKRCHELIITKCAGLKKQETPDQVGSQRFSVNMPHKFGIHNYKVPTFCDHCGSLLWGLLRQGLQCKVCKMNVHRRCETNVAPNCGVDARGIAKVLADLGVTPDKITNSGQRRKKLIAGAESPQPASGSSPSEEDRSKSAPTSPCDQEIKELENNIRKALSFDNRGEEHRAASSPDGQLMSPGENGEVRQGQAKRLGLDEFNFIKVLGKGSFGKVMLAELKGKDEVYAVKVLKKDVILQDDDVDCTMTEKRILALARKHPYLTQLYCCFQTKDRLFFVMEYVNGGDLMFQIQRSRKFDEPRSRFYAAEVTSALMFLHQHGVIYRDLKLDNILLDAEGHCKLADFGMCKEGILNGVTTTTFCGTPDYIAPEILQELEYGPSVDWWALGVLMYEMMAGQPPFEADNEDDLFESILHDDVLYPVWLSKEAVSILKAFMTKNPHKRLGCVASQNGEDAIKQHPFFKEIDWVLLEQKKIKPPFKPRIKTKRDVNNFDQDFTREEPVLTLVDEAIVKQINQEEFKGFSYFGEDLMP
Chain of MYLK (MLCK) (Q15746 whole entry): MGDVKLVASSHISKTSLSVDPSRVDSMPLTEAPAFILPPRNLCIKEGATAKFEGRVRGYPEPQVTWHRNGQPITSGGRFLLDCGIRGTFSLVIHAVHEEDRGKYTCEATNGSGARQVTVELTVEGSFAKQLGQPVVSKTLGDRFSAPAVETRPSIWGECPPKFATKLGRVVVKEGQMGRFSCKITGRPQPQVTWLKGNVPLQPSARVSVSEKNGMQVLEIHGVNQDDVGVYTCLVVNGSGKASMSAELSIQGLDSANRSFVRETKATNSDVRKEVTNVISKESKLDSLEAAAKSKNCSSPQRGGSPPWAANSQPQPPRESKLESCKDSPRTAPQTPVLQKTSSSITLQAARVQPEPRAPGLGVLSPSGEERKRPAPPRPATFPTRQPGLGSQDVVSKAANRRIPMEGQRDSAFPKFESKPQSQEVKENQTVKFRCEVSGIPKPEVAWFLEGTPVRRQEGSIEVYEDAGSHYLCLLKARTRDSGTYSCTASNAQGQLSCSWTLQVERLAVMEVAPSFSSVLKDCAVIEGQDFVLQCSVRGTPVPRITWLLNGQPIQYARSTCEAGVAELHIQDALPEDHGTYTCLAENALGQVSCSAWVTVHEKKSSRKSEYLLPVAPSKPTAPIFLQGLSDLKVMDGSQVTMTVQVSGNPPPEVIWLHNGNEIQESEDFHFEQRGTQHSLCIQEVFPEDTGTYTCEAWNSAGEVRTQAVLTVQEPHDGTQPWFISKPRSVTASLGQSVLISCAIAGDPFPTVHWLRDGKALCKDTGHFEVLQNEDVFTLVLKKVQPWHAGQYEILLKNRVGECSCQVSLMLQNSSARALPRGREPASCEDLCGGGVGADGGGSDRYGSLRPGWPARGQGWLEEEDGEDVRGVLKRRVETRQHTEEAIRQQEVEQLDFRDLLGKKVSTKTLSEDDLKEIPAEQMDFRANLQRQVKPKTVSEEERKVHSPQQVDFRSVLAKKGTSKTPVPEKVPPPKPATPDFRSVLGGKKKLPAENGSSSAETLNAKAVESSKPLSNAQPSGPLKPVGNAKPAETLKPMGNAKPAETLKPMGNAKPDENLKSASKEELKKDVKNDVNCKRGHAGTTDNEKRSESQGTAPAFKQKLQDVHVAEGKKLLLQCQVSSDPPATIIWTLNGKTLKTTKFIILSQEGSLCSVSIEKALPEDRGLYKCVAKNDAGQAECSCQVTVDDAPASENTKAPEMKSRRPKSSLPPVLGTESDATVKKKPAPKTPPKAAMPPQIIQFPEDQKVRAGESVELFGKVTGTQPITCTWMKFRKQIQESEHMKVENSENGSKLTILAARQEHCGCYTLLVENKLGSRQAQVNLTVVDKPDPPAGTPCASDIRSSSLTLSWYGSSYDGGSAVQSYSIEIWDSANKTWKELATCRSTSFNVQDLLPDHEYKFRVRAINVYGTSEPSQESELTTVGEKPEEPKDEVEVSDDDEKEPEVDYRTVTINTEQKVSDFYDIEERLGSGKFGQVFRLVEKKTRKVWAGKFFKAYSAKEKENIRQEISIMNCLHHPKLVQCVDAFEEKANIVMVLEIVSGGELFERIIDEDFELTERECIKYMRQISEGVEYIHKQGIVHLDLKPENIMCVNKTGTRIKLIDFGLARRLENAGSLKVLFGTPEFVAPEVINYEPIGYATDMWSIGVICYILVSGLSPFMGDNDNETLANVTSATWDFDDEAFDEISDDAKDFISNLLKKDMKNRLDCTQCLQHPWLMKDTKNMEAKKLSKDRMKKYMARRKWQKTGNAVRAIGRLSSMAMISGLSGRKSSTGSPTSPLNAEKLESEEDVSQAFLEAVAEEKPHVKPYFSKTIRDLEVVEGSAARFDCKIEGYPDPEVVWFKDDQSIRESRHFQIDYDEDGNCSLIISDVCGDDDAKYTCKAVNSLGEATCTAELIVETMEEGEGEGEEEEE
Chain of CAMKK2 (CaMKK beta) (Q96RR4 whole entry): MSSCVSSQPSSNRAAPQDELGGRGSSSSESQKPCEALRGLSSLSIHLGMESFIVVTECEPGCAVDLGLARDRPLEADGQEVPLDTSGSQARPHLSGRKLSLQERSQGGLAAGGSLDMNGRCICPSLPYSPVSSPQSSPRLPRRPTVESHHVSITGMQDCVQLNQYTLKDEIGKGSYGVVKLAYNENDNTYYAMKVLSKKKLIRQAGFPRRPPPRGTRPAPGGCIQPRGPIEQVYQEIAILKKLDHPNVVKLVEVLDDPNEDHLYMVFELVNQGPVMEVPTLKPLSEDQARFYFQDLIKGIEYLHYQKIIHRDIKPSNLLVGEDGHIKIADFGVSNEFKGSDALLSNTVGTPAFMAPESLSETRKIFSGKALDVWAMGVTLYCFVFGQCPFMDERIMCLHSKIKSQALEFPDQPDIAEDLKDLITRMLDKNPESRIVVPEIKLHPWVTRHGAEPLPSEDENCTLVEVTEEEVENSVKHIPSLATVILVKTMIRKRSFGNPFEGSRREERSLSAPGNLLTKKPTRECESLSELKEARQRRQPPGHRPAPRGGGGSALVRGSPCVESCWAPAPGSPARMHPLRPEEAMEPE
Chain of STK32C (YANK3) (Q86UX6 whole entry): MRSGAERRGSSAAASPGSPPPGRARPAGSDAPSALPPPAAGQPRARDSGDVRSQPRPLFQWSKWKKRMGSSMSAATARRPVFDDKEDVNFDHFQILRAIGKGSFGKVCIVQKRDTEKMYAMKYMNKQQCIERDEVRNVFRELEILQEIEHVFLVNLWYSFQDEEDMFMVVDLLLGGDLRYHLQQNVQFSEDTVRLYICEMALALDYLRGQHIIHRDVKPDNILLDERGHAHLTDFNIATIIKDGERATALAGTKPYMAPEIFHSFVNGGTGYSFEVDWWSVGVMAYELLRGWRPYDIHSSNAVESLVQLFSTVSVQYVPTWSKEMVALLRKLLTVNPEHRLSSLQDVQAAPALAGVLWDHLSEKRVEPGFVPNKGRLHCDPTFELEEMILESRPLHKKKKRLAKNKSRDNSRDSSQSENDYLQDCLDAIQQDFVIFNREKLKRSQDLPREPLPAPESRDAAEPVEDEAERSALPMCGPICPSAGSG
Chain of SRPK2 (P78362 whole entry): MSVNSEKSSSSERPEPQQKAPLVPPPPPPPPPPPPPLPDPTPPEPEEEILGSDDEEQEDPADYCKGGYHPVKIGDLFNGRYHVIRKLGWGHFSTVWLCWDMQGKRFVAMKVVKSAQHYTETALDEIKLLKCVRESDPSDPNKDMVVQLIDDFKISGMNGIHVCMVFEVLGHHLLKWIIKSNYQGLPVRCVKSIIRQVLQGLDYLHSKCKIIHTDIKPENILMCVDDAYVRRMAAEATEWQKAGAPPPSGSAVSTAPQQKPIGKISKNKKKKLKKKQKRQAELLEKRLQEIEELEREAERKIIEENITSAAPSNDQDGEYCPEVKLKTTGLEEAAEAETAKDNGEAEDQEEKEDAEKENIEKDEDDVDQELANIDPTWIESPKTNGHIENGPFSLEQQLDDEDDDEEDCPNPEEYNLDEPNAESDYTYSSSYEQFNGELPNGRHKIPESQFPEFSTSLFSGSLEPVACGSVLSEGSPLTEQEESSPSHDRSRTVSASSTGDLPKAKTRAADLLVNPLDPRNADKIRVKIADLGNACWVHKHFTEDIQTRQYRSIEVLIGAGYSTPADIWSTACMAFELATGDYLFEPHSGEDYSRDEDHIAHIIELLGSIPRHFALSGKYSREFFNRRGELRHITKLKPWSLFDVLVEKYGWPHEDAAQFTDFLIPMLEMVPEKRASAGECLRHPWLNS

SMILES: C#CCOc1ccc(Nc2ncc(Cl)c(Nc3ccccc3NC(=O)C=C)n2)c(OC)c1 [Compound 6]
- inhibition at 1 µM (CAMKK2 (CaMKK beta); 1 h): 23%
- inhibition at 1 µM (CAMKK2 (CaMKK beta); [1]): 23%
- inhibition at 1 µM (HIPK4; [2]): 14%
- Inhibition at 1 µM (%) (HIPK4; HIPK4, 1 µM, ZLYTE, ATP Km app, listed as WEL028, 1 µM): 16%
- inhibition at 1 µM (HIPK4; read-out: Inhibition at 1 µM (%), HIPK4, 1 µM, ZLYTE, ATP Km app): 12%
- inhibition at 1 µM (MYLK (MLCK); 1 h): 15%
- inhibition at 1 µM (MYLK (MLCK); [1]): 15%
- inhibition at 1 µM (MYO3B (MYO3 beta); [2]): 14%
- Inhibition at 1 µM (%) (MYO3B (MYO3 beta); MYO3B (MYO3 beta), 1 µM, LanthaScreen Binding, listed as WEL028, 1 µM): 13%
- inhibition at 1 µM (MYO3B (MYO3 beta); read-out: Inhibition at 1 µM (%), MYO3B (MYO3 beta), 1 µM, LanthaScreen Binding): 15%
- inhibition at 1 µM (PRKCE (PKC epsilon); [2]): -13%
- Inhibition at 1 µM (%) (PRKCE (PKC epsilon); PRKCE (PKC epsilon), 1 µM, ZLYTE, ATP Km app, listed as WEL028, 1 µM): -15% and -11%
- inhibition at 1 µM (SRPK2): -1%
- inhibition at 1 µM (STK32C (YANK3); 1 h): 3%
- inhibition at 1 µM (STK32C (YANK3); [1]): 3%

Source: paper PMC7316778 (Nature Communications, 2020)
